Laboratory results from ChEMBL document CHEMBL1201862, “PubChem BioAssay data set” (2004).
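Five compound concentrations were applied to cells in 96-well plates for 48 hours; endpoints were derived by simple linear interpolation of the resulting dose-response curve. GI50 is the concentration that inhibits growth by half.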 The source made the active and inactive calls. No stated cut-off is given here; in the data, active = GI50 up to about 1.1 µM and inactive = higher.

What was measured:
Assay in all cases: growth of human tumour cells (NCI), 48 h
A498 = test system: A498
CCRF-CEM = test system: CCRF-CEM
COLO 205 = test system: COLO 205
HCT-116 = test system: HCT-116
HOP-92 = test system: HOP-92
LOX IMVI = test system: LOX IMVI
M14 = test system: M14
MCF7 = test system: MCF7
NCI-H460 = test system: NCI-H460
NCI/ADR-RES = test system: NCI/ADR-RES
OVCAR-3 = test system: OVCAR-3
OVCAR-4 = test system: OVCAR-4
OVCAR-5 = test system: OVCAR-5
OVCAR-8 = test system: OVCAR-8
PC-3 = test system: PC-3
SN12C = test system: SN12C
SR = test system: SR
T47D = test system: T47D
U-251 = test system: U-251

Row | SMILES | GI50 (A498) | GI50 (CCRF-CEM) | GI50 (COLO 205) | GI50 (HCT-116) | GI50 (HOP-92) | GI50 (LOX IMVI) | GI50 (M14) | GI50 (MCF7) | GI50 (NCI-H460) | GI50 (NCI/ADR-RES) | GI50 (OVCAR-3) | GI50 (OVCAR-4) | GI50 (OVCAR-5) | GI50 (OVCAR-8) | GI50 (PC-3) | GI50 (SN12C) | GI50 (SR) | GI50 (T47D) | GI50 (U-251)
1 | Cc1cn(C2CC(O)C(COC(N)=O)O2)c(=O)[nH]c1=O (centres undefined) | > 100 µM (inactive) | > 100 µM (inactive) | > 100 µM (inactive) | > 100 µM (inactive) | > 100 µM (inactive) | > 100 µM (inactive) | > 100 µM (inactive) | > 100 µM (inactive) | > 100 µM (inactive) | > 100 µM (inactive) | > 100 µM (inactive) | > 100 µM (inactive) | > 100 µM (inactive) | > 100 µM (inactive) | > 100 µM (inactive) | > 100 µM (inactive) | > 100 µM (inactive) | > 100 µM (inactive) | > 100 µM (inactive)
2 | CCOC(=O)CC[C@H](N)C(=O)N[C@H](Cc1ccc(N(CCCl)CCCl)cc1)C(=O)OCC | 8.53 µM (inactive) | 1.96 µM (inactive) | 0.977 µM (active) | 5.78 µM (inactive) | 0.561 µM (active) | 4.61 µM (inactive) | 1.42 µM (inactive) | 1.21 µM (inactive) | 1.58 µM (inactive) | 4.26 µM (inactive) | 3.59 µM (inactive) | 5.18 µM (inactive) | 5.06 µM (inactive) | 2.97 µM (inactive) | 3.63 µM (inactive) | 1.79 µM (inactive) | 0.09 µM (active) | 0.239 µM (active) | 6.47 µM (inactive)
3 | COc1ccc(C2c3cc4c(cc3OC(NNC(N)=O)C2C)OCO4)cc1 (centres undefined) | 2.87 µM (inactive) | 2.95 µM (inactive) | 3.95 µM (inactive) | 4.7 µM (inactive) | 16.5 µM (inactive) | 4.39 µM (inactive) | 6.41 µM (inactive) | 4.21 µM (inactive) | 4.94 µM (inactive) | 7.5 µM (inactive) | 3.85 µM (inactive) | 56.4 µM (inactive) | 26.6 µM (inactive) | 6.67 µM (inactive) | 4.69 µM (inactive) | 7.16 µM (inactive) | 1.9 µM (inactive) | 27.4 µM (inactive) | 4.95 µM (inactive)
4 | NC(CSCc1ccccc1)C(=O)O (centres undefined) | > 100 µM (inactive) | > 100 µM (inactive) | > 100 µM (inactive) | > 100 µM (inactive) | > 100 µM (inactive) | > 100 µM (inactive) | > 100 µM (inactive) | > 100 µM (inactive) | > 100 µM (inactive) | > 100 µM (inactive) | > 100 µM (inactive) | > 100 µM (inactive) | > 100 µM (inactive) | > 100 µM (inactive) | > 100 µM (inactive) | > 100 µM (inactive) | > 100 µM (inactive) | > 100 µM (inactive) | > 100 µM (inactive)
5 | CCCCCOC(=O)C(=O)Nc1[nH]nnc1C(N)=O | > 100 µM (inactive) | > 100 µM (inactive) | > 100 µM (inactive) | > 100 µM (inactive) | > 100 µM (inactive) | > 100 µM (inactive) | > 100 µM (inactive) | > 100 µM (inactive) | > 100 µM (inactive) | > 100 µM (inactive) | > 100 µM (inactive) | > 100 µM (inactive) | > 100 µM (inactive) | > 100 µM (inactive) | > 100 µM (inactive) | > 100 µM (inactive) | > 100 µM (inactive) | > 100 µM (inactive) | > 100 µM (inactive)
6 | O=S(=O)(CCCCl)SCCCCl | > 55.6 µM (inactive) | 9.1 µM (inactive) | 29 µM (inactive) | 20.9 µM (inactive) | 25 µM (inactive) | 19.2 µM (inactive) | 21.5 µM (inactive) | 19.6 µM (inactive) | 39.4 µM (inactive) | 31.9 µM (inactive) | 31.1 µM (inactive) | 15.3 µM (inactive) | > 64 µM (inactive) | 13.3 µM (inactive) | 30.1 µM (inactive) | 25.1 µM (inactive) | 10.4 µM (inactive) | 26.9 µM (inactive) | 45.9 µM (inactive)
